Experiments:
[1] = Analyte viscosity sensing: fluorescence lifetime in the presence of different analytes; type: physicochemical; details: 0.5 μM
Procedure: Solutions of bovine serum albumin (BSA), high density lipoprotein (HDL), Liposomes of POPC:POPG 85:15 (SUVs) and Liposomes of POPC:POPG:Cholesterol 42.5:7.5:50 (SUV CHOL) were prepared at final concentrations of 1 mg/mL in PBS. COE-BYs were prepared at 1 μM in PBS. 150 μL of analyte and 150 μL of COE-BYs were mixed and incubated for 1 hour at 37C. Fluorescent emission profiles were measured with excitation at 545 nm.

[2] = Two-photon absorption cross section; type: physicochemical; details: intercalated into SUVs
Excerpt: Dynamic biological processes in live cells often take place at a rapid time scale, necessitating rapid image acquisition. For 2P-FLIM applications, this is especially relevant since a significant photon count is required to ensure accurate decay statistics and lifetime values. Two-photon imaging provides access to the NIR-II window for excitation (1000-1700 nm), minimizing photodamage and eliminating out of focus noise. As such, dye brightness plays a key role in enabling high-quality imaging. We thus evaluated their two-photon absorption cross-section of the COE-BY series. […] These properties will become relevant when determining the utility of COE-BYPhOC4 to image the endocytosis pathway and different response of living cells.

HeLa cells [3] = assay: Uptake after pretreatment with endocytic inhibitors, flow cytometry; type: cell-based; details: 1 μM dye, 3 h
Procedure: (§1) To further understand the internalization of COE-BYPhOC4, A549 and HeLa cells were pretreated with endocytic inhibitors including pharmacological treatments genistein (caveolae-dependent), chlorpromazine (clathrin-dependent) and low temperature (energy-dependent). Cells were then stained by treatment with 1 μM COE-BYPhOC4 and the endocytosis inhibition efficiency was characterized by flow cytometry and fluorescence confocal imaging. […] The confocal images in FIG. 13C provide additional confirmation of this endocytosis pathway. Fluorescence signals are only observed on the plasma membranes in the chlorpromazine pretreated group, while COE-BYPhOC4 readily underwent endocytosis and appeared as red vesicular puncta in the other three groups. Successful plasma membrane staining similar to FIG. 12A also provides evidence of insertion into the membrane prior to endocytosis and subsequent trafficking together with other lipid molecules, as opposed to being directly engulfed within intracellular vesicles. This feature enables the dye to follow the endosomal pathway throughout the maturation process beginning from the plasma membrane, as opposed to commonly employed pH-dependent methods to control accumulation within vesicle subtypes.

A549 cells = assay: as above; type: cell-based; details: 1 μM dye, 3 h
Procedure: as §1

[4] = FLIM of stained GUVs with varying compositions; type: physicochemical; details: 1 μM
Excerpt: FLIM is a time-resolved method used to obtain information on the emission decay of a fluorophore in different cellular environments. Being independent of parameters such as local dye concentration, absorption profile, and excitation intensity, FLIM is sensitive to changes in the fluorophore itself relative to intensity-based measurements. Accordingly, we first used GUV model systems with a well-defined composition to measure the lifetime of the probe in environments of known lipid packing. For this purpose, use used compositions of, in order of increased membrane tension, DOPC, DOPC with cholesterol (Chol), sphyngomyelin (SM) and SM with Chol. This series of GUVs allows us to examine to what extent τw of intercalated COE-BYPhOC4 is responsive to different levels of membrane tension.
GUVs were thus first stained with 1 μM COE-BYPhOC4 and were imaged via conventional FLIM. […] All the lifetimes measured are predominantly described by a mono-exponential fit. […]

[5] = Fluorescence lifetime in water:glycerol mixtures of varying viscosities; type: physicochemical; details: 590 nm, 20° C.
Procedure: The BODIPY unit of COE-BYs are sensitive to the viscosity of its environment. As an example, COE-BYPhMe was added to mixtures of water and glycerol at various ratios. The viscosity of the local environment has the most significant effect on its emission intensity and emission lifetime. The plot of log τ (fluorescence lifetime) versus log η (solvent viscosity) is fitted by a straight line.
We examined the sensitivity of COE-BYs to changes in viscosity in solution by using different glycerol and water mixtures. The viscosities of the solutions were increased through increases of the glycerol fraction. Of interest was the relationship between the viscosity (η) and the amplitude-weighted average emission lifetime (τw), which is defined by
Each individual lifetime component Tr is normalized to the corresponding amplitude (Ai) derived from fitting the emission decay to a multiexponential model, where p is the total number of exponents (1 or 2). […] It is known that increases in environmental viscosity restricts the rotation of the phenyl rings surrounding the BODIPY unit, which diminishes non-radiative decay pathways of the excited state, resulting in longer fluorescence lifetimes. […] Due to the low emission, we could not accurately extract emission lifetimes from the fluorescence decays of COE-BYPhCN and COE-BYPhNO.

HeLa cells [6] = assay: Brightness of stained HeLa cells by flow cytometry; type: cell-based; details: FIG. 11
Excerpt: To evaluate their potential use as fluorescent probes for intracellular imaging, we first analyzed the brightness of each COE-BY molecule when used to stain HeLa cells using flow cytometry. As flow cytometry reports the fluorescence intensity per cell, this analysis would enable simultaneous evaluation of the cellular uptake and brightness. […] Based on these parameters, COE-BYPhOC4 was chosen for further in vitro imaging studies.

## CCCCOc1ccc(C2=C3C(C)=C(c4ccc(/C=C/c5cc(OCCCCCC[N+](C)(C)C)c(OCCCCCC[N+](C)(C)C)c(OCCCCCC[N+](C)(C)C)c5)cc4)C(C)=[N+]3[B-](F)(F)n3c(C)c(-c4ccc(/C=C/c5cc(OCCCCCC[N+](C)(C)C)c(OCCCCCC[N+](C)(C)C)c(OCCCCCC[N+](C)(C)C)c5)cc4)c(C)c32)cc1.[I-].[I-].[I-].[I-].[I-].[I-] [COE-BYPhOC4]
[1]; analyte HDL 0.5 mg/mL
  Lifetime: 4.02 ± 0.01 ns
[1]; analyte PBS
  Lifetime: 0.56 ± 0.01 ns
[1]; analyte SUV (POPC:POPG 85:15) 0.5 mg/mL
  Lifetime: 1.99 ± 0.01 ns
[1]; analyte SUV CHOL (POPC:POPG:Cholesterol 42.5:7.5:50) 0.5 mg/mL
  Lifetime: 2.18 ± 0.01 ns
[2]
  two photon absorption cross section area: 486 GM
HeLa cells [3]; chlorpromazine pretreatment
  dye fluorescence intensity relative to the untreated group: 21%
HeLa cells [3]; genistein pretreatment
  dye fluorescence intensity relative to the untreated group: 92%
A549 cells; A549, chlorpromazine pretreatment
  dye fluorescence intensity relative to the untreated group: 14%
A549 cells; A549, genistein pretreatment
  dye fluorescence intensity relative to the untreated group: 95%
[4]; DOPC GUVs
  τw: 1.6±0.2 ns
[4]; SM/Chol vesicles
  τw: 2.8±0.3 ns
[5]; solution viscosity 22.5 cP
  amplitude-weighted average emission lifetime τw: 0.5 ns
[5]; solution viscosity 939 cP
  amplitude-weighted average emission lifetime τw: 1.2 ns
HeLa cells [6]
  brightness of stained cells: highest brightness

Source: patent US20260210856A1, “CONJUGATED OLIGOELECTROLYTES WITH BORON-DIPYRROMETHENE CORES AND METHODS THEREOF” (National University of Singapore, priority 2022, published 2026)
